Test results reported in patent US20260364040A1, “MONO- AND BIS-NITROSYLATED PROPANEDIOLS FOR USE IN THE TREATMENT OF A THROMBOEMBOLIC DISEASE” (ATTGENO AB, priority 2023, published 2026).

Columns and labels:
[1] = Circulation times and in vivo half-life estimation from injections and infusions; set-up: species or system pig
Protocol: Intraarterial injections in the left CCA and left CFA and central intravenous injections (PDNO 0.5-4 micromol) were used to estimate in vivo half-life of PDNO in anesthetized, instrumented pigs (n=2). Regional blood flow, mean systemic arterial pressure (MAP), end-tidal nitric oxide (ETNO) and arterial blood gases were measured.
In addition, 10 ml of 5% sodium bicarbonate solution was injected at these sites.
Between the local intraarterial infusion routes, intravenous infusions in the central venous catheter at four doses (3, 10, 30 and 100 nmol kg^−1 min^−1, 10 minutes per dose) were given for reference. There was a washout period of 60 minutes between the PDNO administration.
Primary outcome was effects on regional blood flow, systemic blood pressure and end-tidal nitric oxide (ETNO). […]
The median (25-75 percentiles) circulation times from the carotid and femoral intraarterial injection sites were to first exhalation with increased ETNO 13.5 s (12.3-15.4, n=13) s and 13.7 s (12.9-15.2, n=9), respectively, and from the central intravenous injection site 5.0 s (4.3-5.9, n=29) and 5.3 s (3.3-5.8, n=9). The circulation times between the carotid and femoral intraarterial injection sites to the central intravenous injection site were calculated to 8.5 s and 8.4 s as depicted in Table 1 below.

[2] = rabbit model, Cederqvist et al. 1994; cited from earlier work
[3] = test system: SFLLRN (PAR-1 agonist) stimulated platelets in human whole blood; assay: Platelet aggregation in human whole blood (impedance, Multiplate aggregometer); assay type: cell-based; settings: drug added 2 min prior to SFLLRN, impedance 10 min, AUC, n=4
Protocol: FIG. 8: Platelet aggregation in whole blood. Suspensions of human blood were stimulated by the PAR-1 agonist […] in the absence (open bar) and presence of either PDNO (black bar) or nitroglycerine (grey bar). The NO-donating drugs were introduced to the blood 2 min prior to SFLLRN. Platelet aggregation response was analysed as increases in impedance over a period of 10 min and is expressed as area under the curve. The bars represent mean value and standard deviation (n=4).
Potential anti-thrombotic effect of PDNO in vitro was evaluated by analysing aggregation responses to the thrombin mimetic hexapeptide SFLLRN. […]
Heparinized human or pig blood (0.5 ml) was diluted 1:1 with Krebs-Ringer glucose (KRG) buffer (isotone saline, pH 7.4). […] Platelet aggregation in vitro (human blood) and ex vivo (pig blood) was measured as increase in electrical impedance between two platinum electrodes. […]
In the in vitro experiments, PDNO or nitroglycerine (used as control drug) was introduced 2 min prior to the hexapeptide SFLLRN. […] Aggregation responses were registered during 10 min and expressed as area under curve.
Platelet aggregation in whole blood (human blood with heparin as anticoagulant) was analysed as increases in electrical resistance (impedance changes between two platinum electrodes) using a Multiplate aggregometer.

[4] = test system: VASP (Ser239 phosphorylation), NO/cyclic GMP signalling in human platelets; assay: Ser239-specific VASP phosphorylation in isolated human platelets (Western blotting); assay type: cell-based; settings: 5 min exposure, unstimulated and SFLLRN-stimulated platelets, n=3
Protocol: FIG. 9: Increases in Ser 239-specific VASP phosphorylation in platelets. Suspensions of isolated human blood platelets were stimulated by either PDNO or nitroglycerine. The platelets were exposed to the NO-donors for 5 min followed by Western immuno blotting for phosphoVASP detection. These experiments were conducted in unstimulated and SFLLRN-stimulated platelets. The PAR-1 agonist was added 2 min after PDNO/nitroglycerine. The bars represent mean value and standard deviation (n=3).
In platelets and vascular smooth muscle cells, the cytoskeleton-binding protein vasodilator-stimulated phosphoprotein (VASP) is a main molecular target for NO/cyclic GMP signalling pathway. Ser239 specific phosphorylation of VASP following NO exposure of platelets is believed to be a pivotal molecular mechanism underlying anti-aggregatory/antithrombotic effects of NO. The effect of PDNO on Ser239-specific VASP phosphorylation was analysed by Western (immuno) blotting.
Aliquots of isolated platelet suspensions were exposed to either PDNO or nitroglyceine for 5 min. This series of experiments were conduced both on resting and SFLLRN-stimulated platelets.
Specifically, NO/cyclic GMP-induced phosphorylation of Ser239 on vasodilator-stimulated phosphoproteins (VASP) was detected by Western blotting. […]

Row | SMILES | correlation between in vivo generation of NO and effects on blood pressure [2] | further results
1 | O=C([O-])O.[Na+] [Sodium bicarbonate] |  | Circulation time (median) between intraarterial and intravenous injection site ([1]; carotid artery and intravenous): 7.0 s; Circulation time (median) between intraarterial and intravenous injection site ([1]; femoral artery and intravenous): 8.9 s
2 | CCCCON=O [butyl nitrite] | significant correlation between the in vivo generation of NO and effects on blood pressure | 
3 | CCON=O [ethyl nitrite] | significant correlation between the in vivo generation of NO and effects on blood pressure | 
4 | CC(C)CCON=O [isoamyl nitrite] | significant correlation between the in vivo generation of NO and effects on blood pressure | 
5 | CC(C)CO[N+](=O)[O-] [isobutyl nitrate] | significant correlation between the in vivo generation of NO and effects on blood pressure | 
6 | CC(C)CON=O [isobutyl nitrite] | significant correlation between the in vivo generation of NO and effects on blood pressure | 
7 | O=[N+]([O-])OCC(CO[N+](=O)[O-])O[N+](=O)[O-] [nitroglycerine, 1,2,3-propanetriol-nitrate] | significant correlation between the in vivo generation of NO and effects on blood pressure | SFLLRN-induced platelet aggregation, whole blood [3]: not nitroglycerine significantly inhibited SFLLRN-induced platelet aggregation; Ser239-specific VASP phosphorylation [4]: not nitroglycerine provoked a significant increase in Ser239-specific VASP phosphorylation
